From paper PMC5082792 (PLoS ONE, 2016)

Assays:
[1] = DRV plasma trough concentration ([DRV]plasma) by UPLC-DAD in HIV-1 infected patients, by CYP3A5 genotype-based expression status; type: in vivo, human
Description: After a clinical assessment and in addition to the samples routinely collected for the clinical follow-up (viral load, CD4 cell count), two more blood samples were drawn immediately before drug intake, with the highest timing precision conceivable given the ambulatory context of the study recruitment. […] In order to obtain a post-intake delay as close as possible to the trough sampling time, each patient was personally contacted by phone a few days before the study visit to ensure not taking the medication prior to blood sampling.
Plasma was then collected and stored at -20°C until the day of quantification.
Genotype and allele frequencies were calculated and deviations from Hardy-Weinberg equilibrium (HWE) were evaluated using exact tests.
The patients were also classified into CYP3A5 expressors (CYP3A5*1 allele carriers) and CYP3A5 non-expressors (CYP3A5*3 homozygous).

[2] = addition of ETR 200mg bid to DRV/r 600/100mg bid; cited from earlier work
[3] = cited from earlier work
[4] = system: HIV; design: method as in PMID 17617270, PMID 17617271; conditions: treatment-experienced patients, with optimized background regimen including DRV/r 600/100 mg BID; cited from earlier work

| decrease of plasma drug concentration by the drug-drug interaction ([1]; CYP3A5 expressors versus non-expressors, DRV with ETR) | mean [DRV]plasma (geometric mean trough concentration) ([1]; overall, all 135 patients) | [DRV]plasma of a single patient ([1]; person, CYP3A5 expressor, DRV/r and ETR, detectable viral load) | DRV plasma concentration (geometric mean) ([1]; subgroup DRV/r 600/100mg BID plus ETR n = 13, CYP3A5 expressors n = 5) | DRV plasma concentration (geometric mean) ([1]; subgroup DRV/r 600/100mg BID plus ETR n = 13, CYP3A5 non-expressors n = 8) | DRV plasma concentration (geometric mean) ([1]; subgroup DRV/r 800/100mg QD, CYP3A5 expressors n = 41) | SMILES | DRV plasma concentration (geometric mean) ([1]; subgroup DRV/r 600/100mg BID, CYP3A5 expressors n = 19) | DRV plasma concentration (geometric mean) ([1]; subgroup DRV/r 600/100mg BID, CYP3A5 non-expressors n = 23) | DRV plasma concentration (geometric mean) ([1]; subgroup DRV/r 800/100mg QD, CYP3A5 non-expressors n = 52) | increase of DRV AUC [2] | DRV PK parameters (in particular Ctrough and Cmax) ([3]; DRV/r 600/100mg bid with ETR 100mg or 200mg bid, healthy volunteers) | virological efficacy, immunological recovery and clinical progression versus placebo [4] | decrease of ETR exposure ([3]; DRV/r with ETR 100mg twice daily compared to ETR alone) |
| --- | --- | --- | --- | --- | --- | --- | --- | --- | --- | --- | --- | --- | --- |
| more than 55% | 1805 ng/mL | 652 ng/mL | • 1486ng/ml • (CI95%:725–3044) • n = 5 | • 3141ng/ml • (CI95%: 2042–4831) • n = 8 | • 1693ng/ml • (CI95%:1314–2182) • n = 41 | CC(C)CN(C[C@@H](O)[C@H](Cc1ccccc1)NC(=O)O[C@H]1CO[C@H]2OCC[C@H]21)S(=O)(=O)c1ccc(N)cc1 [DRV, Darunavir] | • 2411 • (CI95%: 1895–3067) • n = 19 ng/ml | • 2430 • (CI95%: 1817–3249) • n = 23 ng/ml | • 1498ng/ml • (CI95%: 1227–1828) • n = 52 | 14% | unchanged | – | – |
| – | – | – | – | – | – | Cc1cc(C#N)cc(C)c1Oc1nc(Nc2ccc(C#N)cc2)nc(N)c1Br [ETR, Etravirine] | – | – | – | – | – | superiority | 37% |
